According to US11370796B2, “Substituted pyrazoles as LRRK2 inhibitors” (OSCOTEC INC., priority 2017, dated 2022):
Read-outs that look alike come from different tables or passages of the source.

Target: LRRK2 (leucine-rich repeat kinase 2) (Homo sapiens (Human), UniProt Q5S007)
Assay: Inhibitory effect on LRRK2 in vitro (LANCE kinase assay)
Assay type: biochemical
Description: The inhibitory effect of Compounds 1 to 62 on LRRK2 (leucine-rich repeat kinase 2) in vitro was measured. In the analysis of the results, IC50 values were calculated for a quantitative comparison of the in vitro activity.
After the compound was dissolved in 100% DMSO at 10 mM, it was serially diluted to the range of 1 μM to 10 μM using biochemical LRRK2 assay buffer (50 mM HEPES (4-(2-hydroxyethyl)-1-piperazineethanesulfonic acid) pH 7.5, 10 mM MgCl2, 1 mM EGTA (1,2-bis(o-aminophenoxy)ethane-N,N,N′,N′-tetraacetic acid), 2 mM DTT (dithiothreitol), and 0.01% TWEEN-20 (Aldrich)). Purified LRRK2 (CARNA BIOSCIENCES) was added to a black U-bottom 96-well microtiter plate containing 6 μl of the serially diluted compound, followed by incubation at room temperature for 30 minutes. For the kinase reaction, ATP and a substrate solution specific urea-polypeptide (ULIGHT™-poly TK, PerkinElimer) were added. The reaction was carried out at room temperature for 1 hour, and it was detected with an detection solution (brand name: LANCE™) containing EDTA. A LANCE detection solution containing europium-labeled antibody ([…] PT66) was added, followed by incubation at room temperature for 50 minutes, to terminate the kinase experiment. The phosphorylated substrate was detected by 665 nm emission measurement. IC50 values were calculated by a non-linear regression analysis using a Prism program (PRISM™ software) with reference to the absence of a kinase inhibitor.
As a comparative assay, a compound LRR2-IN-1, that known to be a reference compound for LRRK2 inhibitor, have also tested an inhibitory activity.

[1] = Table 1, class symbols, read-out: LRRK2 inhibition rate (IC50)
[2] = purified LRRK2, Table 6, read-out: IC50

LRRK2 (leucine-rich repeat kinase 2), sequence (Q5S007 whole entry): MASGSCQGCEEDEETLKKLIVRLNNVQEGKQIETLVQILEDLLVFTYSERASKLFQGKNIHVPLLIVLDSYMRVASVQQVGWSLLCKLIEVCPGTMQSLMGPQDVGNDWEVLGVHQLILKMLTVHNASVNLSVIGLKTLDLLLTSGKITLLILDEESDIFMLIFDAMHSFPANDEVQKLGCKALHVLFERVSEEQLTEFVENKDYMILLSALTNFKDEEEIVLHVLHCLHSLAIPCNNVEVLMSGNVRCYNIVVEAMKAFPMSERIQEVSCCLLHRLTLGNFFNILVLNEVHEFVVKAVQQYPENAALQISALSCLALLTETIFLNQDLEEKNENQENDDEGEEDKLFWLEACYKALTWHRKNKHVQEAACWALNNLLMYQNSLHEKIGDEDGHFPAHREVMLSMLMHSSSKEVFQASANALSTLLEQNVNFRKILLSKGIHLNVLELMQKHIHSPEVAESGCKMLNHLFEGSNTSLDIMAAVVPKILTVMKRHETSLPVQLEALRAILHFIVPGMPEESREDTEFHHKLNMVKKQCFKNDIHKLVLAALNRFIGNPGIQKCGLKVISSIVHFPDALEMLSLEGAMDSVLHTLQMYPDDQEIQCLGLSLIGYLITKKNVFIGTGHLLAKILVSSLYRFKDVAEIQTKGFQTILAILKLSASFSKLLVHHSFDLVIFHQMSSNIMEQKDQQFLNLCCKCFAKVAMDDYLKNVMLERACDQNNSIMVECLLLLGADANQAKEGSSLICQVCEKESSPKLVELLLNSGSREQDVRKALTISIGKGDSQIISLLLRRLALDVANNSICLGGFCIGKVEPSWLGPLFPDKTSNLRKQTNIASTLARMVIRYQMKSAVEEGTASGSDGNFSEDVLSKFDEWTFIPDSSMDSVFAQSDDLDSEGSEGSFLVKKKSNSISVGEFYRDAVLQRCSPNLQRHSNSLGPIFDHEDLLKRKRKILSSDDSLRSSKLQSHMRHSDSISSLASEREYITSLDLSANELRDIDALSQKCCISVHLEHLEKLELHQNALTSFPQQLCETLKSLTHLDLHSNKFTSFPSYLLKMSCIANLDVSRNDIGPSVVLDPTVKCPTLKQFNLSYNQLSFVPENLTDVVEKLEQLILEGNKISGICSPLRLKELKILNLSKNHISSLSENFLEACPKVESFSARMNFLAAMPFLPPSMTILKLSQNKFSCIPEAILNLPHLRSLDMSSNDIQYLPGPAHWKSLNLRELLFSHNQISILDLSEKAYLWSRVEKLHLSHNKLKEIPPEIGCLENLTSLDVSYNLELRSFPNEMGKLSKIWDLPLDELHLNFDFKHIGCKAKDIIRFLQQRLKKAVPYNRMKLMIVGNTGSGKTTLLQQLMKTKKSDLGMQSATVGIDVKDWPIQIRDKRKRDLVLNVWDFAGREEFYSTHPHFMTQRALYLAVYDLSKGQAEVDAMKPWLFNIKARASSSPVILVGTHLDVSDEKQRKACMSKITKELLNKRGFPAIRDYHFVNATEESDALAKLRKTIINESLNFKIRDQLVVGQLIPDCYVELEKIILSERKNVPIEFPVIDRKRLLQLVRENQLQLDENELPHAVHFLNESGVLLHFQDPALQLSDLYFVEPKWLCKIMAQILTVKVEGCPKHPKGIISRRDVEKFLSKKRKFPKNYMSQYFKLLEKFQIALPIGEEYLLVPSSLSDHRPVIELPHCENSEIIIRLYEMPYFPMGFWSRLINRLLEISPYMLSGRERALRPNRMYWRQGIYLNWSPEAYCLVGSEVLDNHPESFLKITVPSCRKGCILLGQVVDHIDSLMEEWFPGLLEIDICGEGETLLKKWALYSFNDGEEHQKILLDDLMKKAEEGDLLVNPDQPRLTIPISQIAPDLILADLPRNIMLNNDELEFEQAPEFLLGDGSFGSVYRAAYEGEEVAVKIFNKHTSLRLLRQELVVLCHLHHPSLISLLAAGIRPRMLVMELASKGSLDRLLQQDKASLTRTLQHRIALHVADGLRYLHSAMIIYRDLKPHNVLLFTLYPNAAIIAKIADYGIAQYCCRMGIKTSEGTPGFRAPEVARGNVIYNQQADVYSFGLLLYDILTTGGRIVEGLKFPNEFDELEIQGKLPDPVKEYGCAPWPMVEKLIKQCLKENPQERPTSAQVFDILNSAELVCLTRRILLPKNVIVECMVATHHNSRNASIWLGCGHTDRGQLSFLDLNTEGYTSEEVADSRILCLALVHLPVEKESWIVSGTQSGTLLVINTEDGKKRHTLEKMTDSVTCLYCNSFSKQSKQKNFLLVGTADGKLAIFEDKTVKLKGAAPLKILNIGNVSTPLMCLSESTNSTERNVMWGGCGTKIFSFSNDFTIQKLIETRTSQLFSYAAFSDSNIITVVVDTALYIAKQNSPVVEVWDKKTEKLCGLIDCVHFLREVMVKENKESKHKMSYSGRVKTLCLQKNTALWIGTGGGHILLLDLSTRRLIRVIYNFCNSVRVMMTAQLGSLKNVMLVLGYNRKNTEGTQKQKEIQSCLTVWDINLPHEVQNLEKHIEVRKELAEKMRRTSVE

SMILES | IC50 [1] | IC50 [2]
CCn1cc(Cl)c2cnc(Nc3cn(C4CCN(C)CC4)nc3Cl)nc21 [Compound 17, 5-chloro-N-(3-chloro-1-(1-methylpiperidin-4-yl)-1H-pyrazol-4-yl)-7-ethyl-7H-pyrrolo[2,3-d]pyrimidin-2-amine] | 0.01 to 0.1 µM | 
CCn1cc(Cl)c2cnc(Nc3cn(C4CCOCC4)nc3Cl)nc21 [Compound 18, 5-chloro-N-(3-chloro-1-(tetrahydro-2H-pyran-4-yl)-1H-pyrazol-4-yl)-7-ethyl-7H-pyrrolo[2,3-d]pyrimidin-2-amine] | 0.01 to 0.1 µM | 
CCn1cc(Cl)c2cnc(Nc3cn(C4CC(C)OC(C)C4)nc3Cl)nc21 (stereo not drawn) [Compound 19, 5-chloro-N-(3-chloro-1-(2,6-dimethyltetrahydro-2H-pyran-4-yl)-1H-pyrazol-4-yl)-7-ethyl-7H-pyrrolo[2,3-d]pyrimidin-2-amine] | 0.01 to 0.1 µM | 
CCN1CCC(n2cc(Nc3ncc4c(Cl)cn(CC)c4n3)c(Cl)n2)CC1 [Compound 20, 5-chloro-N-(3-chloro-1-(1-ethylpiperidin-4-yl)-1H-pyrazol-4-yl)-7-ethyl-7H-pyrrolo[2,3-d]pyrimidin-2-amine] | 0.01 to 0.1 µM | 
CCn1cc(Cl)c2cnc(Nc3cn(-c4ccc(F)cc4)nc3Cl)nc21 [Compound 21, 5-chloro-N-(3-chloro-1-(4-fluorophenyl)-1H-pyrazol-4-yl)-7-ethyl-7H-pyrrolo[2,3-d]pyrimidin-2-amine] | 0.1 to 1 µM | 
CCn1cc(Cl)c2cnc(Nc3cnn(-c4ccc(Cl)cc4)c3Cl)nc21 [Compound 22, 5-chloro-N-(5-chloro-1-(4-chlorophenyl)-1H-pyrazol-4-yl)-7-ethyl-7H-pyrrolo[2,3-d]pyrimidin-2-amine] | 0.1 to 1 µM | 
CC(=O)N1CCC(n2ncc(Nc3ncc4c(Cl)cn(C)c4n3)c2Cl)CC1 [Compound 23, 1-(4-(5-chloro-4-(5-chloro-7-methyl-7H-pyrrolo[2,3-d]pyrimidin-2-ylamino)-1H-pyrazol-1-yl)piperidin-1-yl)ethanone] | 0.01 to 0.1 µM | 
CCn1cc(Cl)c2cnc(Nc3cn(C4CCN(C(=O)C5CC5)CC4)nc3Cl)nc21 [Compound 24, (4-(3-chloro-4-(5-chloro-7-ethyl-7H-pyrrolo[2,3-d]pyrimidin-2-ylamino)-1H-pyrazol-1-yl)piperidin-1-yl)(cyclopropyl)methanone] | 0.01 to 0.1 µM | 
CCn1cc(Cl)c2cnc(Nc3cn(C4CCN(S(C)(=O)=O)CC4)nc3Cl)nc21 [Compound 25, 5-chloro-N-(3-chloro-1-(1-(methylsulfonyl)piperidin-4-yl)-1H-pyrazol-4-yl)-7-ethyl-7H-pyrrolo[2,3-d]pyrimidin-2-amine] | < 0.01 µM | 0.00667 µM
CCn1cc(Cl)c2cnc(Nc3cn(C4CCN(C(=O)C(C)C)CC4)nc3Cl)nc21 [Compound 26, 1-(4-(3-chloro-4-(5-chloro-7-ethyl-7H-pyrrolo[2,3-d]pyrimidin-2-ylamino)-1H-pyrazol-1-yl)piperidin-1-yl)-2-methylpropane-1-one] | 0.01 to 0.1 µM | 
Cn1cc(Cl)c2cnc(Nc3cnn(C4CCN(C5COC5)CC4)c3Cl)nc21 [Compound 27, 5-chloro-N-(5-chloro-1-(1-(oxetan-3-yl)piperidin-4-yl)-1H-pyrazol-4-yl)-7-methyl-7H-pyrrolo[2,3-d]pyrimidin-2-amine] | 0.01 to 0.1 µM | 
CCn1cc(Cl)c2cnc(Nc3cnn(C4CCN(C5COC5)CC4)c3Cl)nc21 [Compound 28, 5-chloro-N-(5-chloro-1-(1-(oxetan-3-yl)piperidin-4-yl)-1H-pyrazol-4-yl)-7-ethyl-7H-pyrrolo[2,3-d]pyrimidin-2-amine] | < 0.01 µM | 0.0065 µM
Clc1cn(C2CC2)c2nc(Nc3cnn(C4CCN(C5COC5)CC4)c3Cl)ncc12 [Compound 29, 5-chloro-N-(5-chloro-1-(1-(oxetan-3-yl)piperidin-4-yl)-1H-pyrazol-4-yl)-7-cyclopropyl-7H-pyrrolo[2,3-d]pyrimidin-2-amine] | 0.01 to 0.1 µM | 
CS(=O)(=O)N1CCC(n2cc(Nc3ncc4c(Cl)cn(C5CC5)c4n3)c(Cl)n2)CC1 [Compound 30, 5-chloro-N-(3-chloro-1-(1-(methylsulfonyl)piperidin-4-yl)-1H-pyrazol-4-yl)-7-cyclopropyl-7H-pyrrolo[2,3-d]pyrimidin-2-amine] | < 0.01 µM | 0.00202 µM
CCn1cc(Cl)c2cnc(Nc3cn(C4CCN(C(=O)N5CCOCC5)CC4)nc3Cl)nc21 [Compound 31, (4-(3-chloro-4-(5-chloro-7-ethyl-7H-pyrrolo[2,3-d]pyrimidin-2-ylamino)-1H-pyrazol-1-yl)piperidin-1-yl)(morpholino)methanone] | < 0.01 µM | 0.00466 µM
CCn1cc(Cl)c2cnc(Nc3cn(C4CCN(C(=O)N5CCN(C)CC5)CC4)nc3Cl)nc21 [Compound 32, (4-(3-chloro-4-(5-chloro-7-ethyl-7H-pyrrolo[2,3-d]pyrimidin-2-ylamino)-1H-pyrazol-1-yl)piperidin-1-yl)(4-methylpiperazin-1-yl)methanone] | < 0.01 µM | 0.0025 µM
CCn1cc(Cl)c2cnc(Nc3cn(C4CCN(C(=O)C(C)(C)C)CC4)nc3Cl)nc21 [Compound 33, 1-(4-(3-chloro-4-(5-chloro-7-ethyl-7H-pyrrolo[2,3-d]pyrimidin-2-ylamino)-1H-pyrazol-1-yl)piperidin-1-yl)-2,2-dimethylpropane-1-one] | < 0.01 µM | 0.00607 µM
CCn1cc(Cl)c2cnc(Nc3c(C)nn(C4CCN(S(C)(=O)=O)CC4)c3C)nc21 [Compound 34, 5-chloro-N-(3,5-dimethyl-1-(1-(methylsulfonyl)piperidin-4-yl)-1H-pyrazol-4-yl)-7-ethyl-7H-pyrrolo[2,3-d]pyrimidin-2-amine] | 0.1 to 1 µM | 
CCn1cc(Cl)c2cnc(Nc3cn(C4CCN(S(=O)(=O)C5CC5)CC4)nc3Cl)nc21 [Compound 35, 5-chloro-N-(3-chloro-1-(1-(cyclopropylsulfonyl)piperidin-4-yl)-1H-pyrazol-4-yl)-7-ethyl-7H-pyrrolo[2,3-d]pyrimidin-2-amine] | < 0.01 µM | 0.00666 µM
CCn1cc(Cl)c2cnc(Nc3cn([C@@H]4CCN(S(C)(=O)=O)C4)nc3Cl)nc21 [Compound 36, (R)-5-chloro-N-(3-chloro-1-(1-(methylsulfonyl)pyrrolidin-3-yl)-1H-pyrazol-4-yl)-7-ethyl-7H-pyrrolo[2,3-d]pyrimidin-2-amine] | 0.01 to 0.1 µM | 
CCn1cc(Cl)c2cnc(Nc3cn([C@H]4CCN(S(C)(=O)=O)C4)nc3Cl)nc21 [Compound 37, (S)-5-chloro-N-(3-chloro-1-(1-(methylsulfonyl)pyrrolidin-3-yl)-1H-pyrazol-4-yl)-7-ethyl-7H-pyrrolo[2,3-d]pyrimidin-2-amine] | 0.01 to 0.1 µM | 
CCn1cc(Cl)c2cnc(Nc3cn([C@@H]4CCN(C(=O)C5CCCC5)C4)nc3Cl)nc21 [Compound 38, (R)-(3-(3-chloro-4-(5-chloro-7-ethyl-7H-pyrrolo[2,3-d]pyrimidin-2-ylamino)-1H-pyrazol-1-yl)pyrrolidin-1-yl)(cyclopentyl)methanone] | 0.01 to 0.1 µM | 
CCn1cc(Cl)c2cnc(Nc3cn([C@H]4CCN(C(=O)C5CCCC5)C4)nc3Cl)nc21 [Compound 39, (S)-(3-(3-chloro-4-(5-chloro-7-ethyl-7H-pyrrolo[2,3-d]pyrimidin-2-ylamino)-1H-pyrazol-1-yl)pyrrolidin-1-yl)(cyclopentyl)methanone] | 0.01 to 0.1 µM | 
